Data taken from the NIST ThermoML archive (doi:10.1016/j.fluid.2009.09.008).
± gives the expanded uncertainty stated by the source.

Conditions: Liquid, Ebulliometric method (Recirculating still)

| vapor or sublimation pressure (263.15 K) [kPa] | vapor or sublimation pressure (278.15 K) [kPa] | vapor or sublimation pressure (293.15 K) [kPa] | vapor or sublimation pressure (308.15 K) [kPa] | vapor or sublimation pressure (323.15 K) [kPa] | Structure (SMILES) |
| --- | --- | --- | --- | --- | --- |
| 132.4 ± 1.2 | 235.2 ± 1.2 | 389.4 ± 1.2 | 608.3 ± 1.2 | 912.1 ± 1.2 | FC(C(F)(F)F)C(F)(F)F [1,1,1,2,3,3,3-heptafluoropropane] |
| 345.9 ± 1.2 | 552.7 ± 1.2 | 839.7 ± 1.2 | 1217.2 ± 1.2 | 1714.5 ± 1.3 | CCC [propane] |

| Structure (SMILES) | vapor or sublimation pressure (263.15 K) [kPa] | vapor or sublimation pressure (278.15 K) [kPa] | vapor or sublimation pressure (293.15 K) [kPa] | vapor or sublimation pressure (308.15 K) [kPa] | vapor or sublimation pressure (323.15 K) [kPa] |
| --- | --- | --- | --- | --- | --- |
| FC(F)C(F)(F)F [pentafluoroethane] | 482.4 ± 1.2 | 782.1 ± 1.2 | 1205.6 ± 1.3 | 1773.2 ± 1.3 | 2531.1 ± 1.3 |
